{
  "source": "patent US6492381B1",
  "about": "“Tricyclic carbamate compounds useful for inhibition of G-protein function and for treatment of proliferative diseases” (Schering Corp., priority 1993, dated 2002)",
  "key": {"[1]": {"system": "disordered cell growth induced by transforming Ras-CVLS in COS monkey kidney cells", "test": "Cell-based assay: disordered cell growth induced by transforming Ras in COS cells (microscopy)", "description": "(§1) 2. Cell-Based Assay: Transient expression of val^12-Ha-Ras-CVLS and val^12-Ha-Ras-CVLL in COS monkey kidney cells: Effect of farnesyl protein transferase inhibitors on Ras processing and on disordered cell growth induced by transforming Ras.\n(§2) COS monkey kidney cells were transfected by electroporation with the plasmid pSV-SPORT (Gibco/BRL) containing a cDNA insert encoding either Ras-CVLS or Ras-CVLL, leading to transient overexpression of a Ras substrate for either farnesyl protein transferase or geranylgeranyl protein transferase I, respectively (see above).\n(§3) Following electroporation, cells were plated into 6-well tissue culture dishes containing 1.5 ml of Dulbecco's-modified Eagle's media (GIBCO, Inc.) supplemented with 10% fetal calf serum and the appropriate farnesyl protein transferase inhibitors. After 24 hours, media was removed and fresh media containing the appropriate drugs was re-added.\n48 hours after electroporation cells were examined under the microscope to monitor disordered cell growth induced by transforming Ras. Cells expressing transforming Ras become more rounded and refractile and overgrow the monolayer, reminiscent of the transformed phenotype. […]"}, "[2]": {"system": "C-f-1 [mouse fibroblast transformed with c-fos oncogene]", "test": "In vivo anti-tumor study, C-f-1 s.c. tumor", "details": "C-f-1 s.c. in athymic nu/nu mice, BID", "description": "In Vivo Anti-Tumor Studies\nTumor cells (5×10^5 to 8×10^6 of M27 [mouse Lewis lung carcinoma], A431 [human epidermal carcinoma] or SW620 [human colon adenocarcinoma (lymph node metastasis)]) are innoculated subcutaneously into the flank of 5-6 week old athymic nu/nu female mice. For the C-f-1 [mouse fibroblast transformed with c-fos oncogene] tumor model, 2 mm^3 tumor fragments are transplanted subcutaneously into the flank of 5-6 week old athymic nu/nu female mice. Tumor bearing animals are selected and randomized when the tumors are established. Animals are treated with vehicle (beta cyclodextran for i.p. or corn oil for p.o.) only or compounds in vehicle twice a day (BID) for 5 (1-5) or 7 (1-7) days per week for 2 (×2) or 4 (×4) weeks. The percent inhibition of tumor growth relative to vehicle controls are determined by tumor measurements."}, "[3]": {"biological_target": "T1, geranylgeranyl protein transferase (GGPT) I (Rattus norvegicus, UniProt P53610+Q04631)", "T1 construct": "were partially purified from rat brain by ammonium sulfate fractionation followed by Q-Sepharose; from tissue; host or cells: rat brain", "test": "In vitro enzyme assay: inhibition of geranylgeranyl protein transferase I", "assay_type": "biochemical", "description": "1. In vitro enzyme assays: Inhibition of farnesyl protein transferase and geranylgeranyl protein transferase.\nBoth farnesyl protein transferase (FPT) and geranylgeranyl protein transferase (GGPT) I were partially purified from rat brain by ammonium sulfate fractionation followed by Q-Sepharose (Pharmacia, Inc.) anion exchange chromatography essentially as described by Yokoyama et al (Yokoyama, K., et al., (1991). A protein geranylgeranyltransferase from bovine brain: Implications for protein prenylation specificity, Proc. Natl. Acad. Sci USA 88: 5302-5306, the disclosure of which is incorporated herein by reference thereto). Human farnesyl protein transferase was also expressed in E. coli, using cDNA clones encoding both the α and β subunits. The methods used were similar to those published (Omer, C. et al., (1993), Characterization of recombinant human farnesyl protein transferase: Cloning, expression, farnesyl diphosphate binding, and functional homology with yeast prenyl-protein transferase, Biochemistry 32:5167-5176). Human farnesyl protein transferase was partially-purified from the soluble protein fraction of E. coli as described above. the tricyclic farnesyl protein transferase inhibitors disclosed herein inhibited both human and rat enzyme with similar potencies. Two forms of val^12-Ha-Ras protein were prepared as substrates for these enzymes, differing in their carboxy terminal sequence. One form terminated in cysteine-valine-leucine-serine (Ras-CVLS) the other in cystein-valine-leucine-leucine (Ras-CVLL). Ras-CVLS is a substrate for the farnesyl protein transferase while Ras-CVLL is a substrate for geranylgeranyl protein transferase I. The cDNAs encoding these proteins were constructed so that the proteins contain an amino-terminal extension of 6 histidine residues. Both proteins were expressed in Escherichia coli and purified using metal chelate affinity chromatography. The radiolabelled isoprenyl pyrophosphate substrates, [^3H]farnesyl pyrophosphate and [^3H]geranylgeranyl pyrophosphate, were purchased from DuPont/New England Nuclear.\nThe geranylgeranyl protein transferase I assay was essentially identical to the farnesyl protein transferase assay described above, with two exceptions: [^3H]geranylgeranylpyrophosphate replaced farnesyl pyrophosphate as the isoprenoid donor and Ras-CVLL was the protein acceptor. This is similar to the assay reported by Casey et al (Casey, P. J., et al., (1991), Enzymatic modification of proteins with a geranylgeranyl isoprenoid, Proc. Natl. Acad. Sci, USA 88: 8631-8635, the disclosure of which is incorporated herein by reference thereto)."}, "[4]": {"system": "Ras-CVLS processing in COS monkey kidney cells", "test": "Cell-based assay: Ras-CVLS processing in transfected COS cells (immunoblot)", "details": "Primates; inhibition of Ras-CVLS processing in Ras-transfected COS cells", "description": "as §1, §2, §3\n48 hours after electroporation cells were examined under the microscope to monitor disordered cell growth induced by transforming Ras. Cells expressing transforming Ras become more rounded and refractile and overgrow the monolayer, reminiscent of the transformed phenotype. Cells were then photographed, washed twice with 1 ml of cold phosphate-buffered saline (PBS) and removed from the dish by scraping with a rubber policeman into 1 ml of a buffer containing 25 mM Tris, pH 8.0; 1 mM ethylenediamine tetraacetic acid; 1 mM phenylmethylsulfonyl fluoride; 50 μM leupeptin; and 0.1 μM pepstatin. Cells were lysed by homogenization and cell debris was removed by centrifugation at 2000×g for 10 min.\nCellular protein was precipitated by addition of ice-cold trichloroacetic acid and redissolved in 100 μl of SDS-electrophoresis sample buffer. Samples (5-10 μl) were loaded onto 14% polyacrylamide minigels (Novex, Inc.) and electrophoresed until the tracking dye neared the bottom of the gel. Proteins resolved on the gels were electroblotted onto nitrocellulose membranes for immunodetection.\nMembranes were blocked by incubation overnight at 4° C. in PBS containing 2.5% dried milk and 0.5% Tween-20 and then incubated with a Ras-specific monoclonal antibody, Y13-259 (Furth, M. E., et al., (1982), Monoclonal antibodies to the p21 products of the transforming gene of Harvey murine sarcome virus and of the cellular ras gene family, J. Virol. 43: 294-304), in PBS containing 1% fetal calf serum for one hour at room temperature. After washing, membranes were incubated for one hour at room temperature with a 1:5000 dilution of secondary antibody, rabbit anti-rat IgG conjugated to horseradish peroxidase, in PBS containing 1% fetal calf serum. The presence of processed and unprocessed Ras-CVLS or Ras-CVLL was detected using a calorimetric peroxidase reagent (4-chloro-1-naphthol) as described by the manufacturer (Bio-Rad)."}},
  "data": [
    {"compound": "CCOC(=O)N1CCC(C2(F)c3ccc(Cl)cc3CCc3cccnc32)CC1", "note": "(stereo not shown) [Compound 530.00]", "values": [
      {"measurement": "response to oncogenic Ras-CVLS (overgrowth of monolayer, dense foci)", "setting": "[1]; at 6.6 μg/ml", "result": "inhibited"},
      {"measurement": "response to oncogenic Ras-CVLS (overgrowth of monolayer, dense foci)", "setting": "[1]; at 20 μg/ml", "result": "inhibited"},
      {"measurement": "% Inhibition (tumor growth relative to vehicle controls)", "setting": "[2]; ip, 1-5, × 2", "result": 17.8, "unit": "%"},
      {"measurement": "% Inhibition (tumor growth relative to vehicle controls)", "setting": "[2]; po, 1-5, × 4", "result": 69, "unit": "%"},
      {"measurement": "selective for FPT inhibition (versus GGPT)", "setting": "[3]; FPT versus GGPT", "result": "at least 13 fold"},
      {"measurement": "activity against GGPT", "setting": "[3]; at 49 μM", "result": "inactive"},
      {"measurement": "IC50", "setting": "[4]", "result": 15.4, "unit": "µM"}
    ]}
  ]
}
